From ChEMBL document CHEMBL5385884, “Expanding role of CXCR2 and therapeutic potential of CXCR2 antagonists in inflammatory diseases and cancers” (Eur J Med Chem, 2023)

Legend:
[1] = Effective half life in human; type: ADME; conditions: read-out: t1/2eff (converted)
[2] = Intrinsic clearance in human hepatocytes measured per million cells at 100 uM incubated upto 90 mins by LCMS/MS analysis; type: ADME, cell-based, Hepatocyte; conditions: read-out: CLH
[3] = target: T1, C-X-C chemokine receptor type 2 (Homo sapiens, UniProt P25025); test: Antagonist activity at CXCR2 (unknown origin); type: functional
T1 sequence (P25025 whole entry): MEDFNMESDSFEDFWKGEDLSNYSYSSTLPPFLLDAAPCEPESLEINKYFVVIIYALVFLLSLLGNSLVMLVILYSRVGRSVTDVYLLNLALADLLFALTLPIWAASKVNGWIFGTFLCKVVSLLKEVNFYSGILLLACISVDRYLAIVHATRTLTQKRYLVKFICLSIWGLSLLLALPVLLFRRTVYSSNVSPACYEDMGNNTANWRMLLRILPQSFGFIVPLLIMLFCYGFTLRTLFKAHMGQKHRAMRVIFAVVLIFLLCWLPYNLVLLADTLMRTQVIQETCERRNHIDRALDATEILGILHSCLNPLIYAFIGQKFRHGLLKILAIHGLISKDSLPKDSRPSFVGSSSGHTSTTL

[4] = target: T1, C-X-C chemokine receptor type 2; test: Antagonist activity at CXCL8-activated CXCR2 (unknown origin) overexpressed in human U2OS cells preincubated for 30 mins followed by CXCL8 addition measured after 5 hrs by beta-lactamase reporter gene assay; type: functional, cell-based
[5] = target: C-X-C chemokine receptor type 4 (Homo sapiens, UniProt P61073); test: Antagonist activity at SDF-1-activated CXCR4 (unknown origin) overexpressed in human U2OS cells preincubated for 30 mins followed by SDF-1 addition measured after 5 hrs by beta-lactamase reporter gene assay; type: functional, cell-based
C-X-C chemokine receptor type 4, sequence (P61073 whole entry): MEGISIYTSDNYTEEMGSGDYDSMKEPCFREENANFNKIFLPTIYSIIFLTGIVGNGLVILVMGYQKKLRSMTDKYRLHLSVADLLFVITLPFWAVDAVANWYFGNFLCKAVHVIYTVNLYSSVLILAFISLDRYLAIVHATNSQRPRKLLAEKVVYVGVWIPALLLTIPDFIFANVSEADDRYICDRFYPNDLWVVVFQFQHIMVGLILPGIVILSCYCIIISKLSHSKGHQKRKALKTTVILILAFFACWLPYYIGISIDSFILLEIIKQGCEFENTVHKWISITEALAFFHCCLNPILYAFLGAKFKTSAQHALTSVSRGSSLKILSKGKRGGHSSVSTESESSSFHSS

SMILES | IC50 [3] | IC50 [4] | IC50 [5] | further results
C[C@@H](Oc1cc(NS(=O)(=O)N2CCC2)nc(SCc2cccc(F)c2F)n1)[C@@H](O)CO |  |  |  | half-life [1]: 4 h; hepatocyte CLint at 100 µM [2]: < 5 µL/min/1e6 cells
COc1cc(NS(=O)(=O)c2cccc3nsnc23)c2ncccc2c1 |  | 360 nM | 590 nM | 
CC(=O)c1c(C)oc2c1cc(NS(=O)(=O)c1ccc(C(C)(C)C)cc1)c1ccccc12 |  |  | > 50000 nM | 
COc1cc(NS(=O)(=O)c2ccc(C)cc2)c2ncccc2c1 |  | 400 nM |  | 

Further lines, with some results ahead:

IC50 [3] | SMILES | IC50 [4] | IC50 [5] | further results
0.7 nM | C[C@@H](C(=O)NS(C)(=O)=O)c1ccc(OS(=O)(=O)C(F)(F)F)cc1 [LADARIXIN] |  |  | 
22 nM | O=C(Nc1ccc(F)cc1)c1cnc(SCc2cc(OC(F)(F)F)ccc2B(O)O)nc1 [SX-682] |  |  | 
